Patent publication US9249114B2, “Thiazole derivatives” (Merck Patent GmbH, priority 2011, dated 2016)

Tests used:
phospho-IRF3 Ser 386 = assay: Cell test: dose response inhibition of phospho-IRF3 Ser 386 in MDA-MB-468 cells; type: cell-based; details: Homo sapiens, Poly(I:C) stimulation, read-out: IC50 of reference inhibitor in phospho-IRF3 cell assay
From the text: Cell Test Dose Response Inhibition of Phospho-IRF3 […] cell/MDAMB468/INH/PHOS/IMAG/pIRF3 1. Scope Although TBK1 and IKKε are best known as key players in the innate immune response, recent findings have pointed towards a role for TBK1 and IKKi in Ras-induced oncogenic transformation. TBK1 was identified as a RalB effector in the Ras-like (Ral)-guanine nucleotide exchange factor (GEF) pathway that is required for Ras-induced transformation. TBK1 directly activates IRF3 which, upon phosphorylation, homodimerizes and translocates to the nucleus where it activates processes involved with inflammation, immune regulation, cell survival and proliferation. This assay has been devised in order to assess the efficacy/potency of TBK1/IKKε inhibitor compounds based on the immunocytochemical detection of nuclear localised phospho-IRF3, a target directly downstream of TBK1. […] 2. Assay Overview Day 1: MDA-MB-468 cells are detached with HyQ-Tase, counted, and seeded into a 384-well clear bottom TC-surface plate at density of 10,000 cells per well in a total volume of 35 ul complete medium. Alternatively cells are directly seeded from frozen vials. […] Day 3: The primary antibody is washed off, an AlexaFluor488-conjugated secondary is added, cells are counterstained with propidium iodide followed by image acquisition on IMX Ultra high content reader. […]

IKKε = IKKε (Homo sapiens (Human), UniProt Q14164); assay: IKKε kinase assay (384-well Flashplate); type: biochemical; details: 10 μM ATP, 2 hours at 30° C.; read-out: IKKε enzyme assay IC50
Chain of IKKε (Q14164 whole entry): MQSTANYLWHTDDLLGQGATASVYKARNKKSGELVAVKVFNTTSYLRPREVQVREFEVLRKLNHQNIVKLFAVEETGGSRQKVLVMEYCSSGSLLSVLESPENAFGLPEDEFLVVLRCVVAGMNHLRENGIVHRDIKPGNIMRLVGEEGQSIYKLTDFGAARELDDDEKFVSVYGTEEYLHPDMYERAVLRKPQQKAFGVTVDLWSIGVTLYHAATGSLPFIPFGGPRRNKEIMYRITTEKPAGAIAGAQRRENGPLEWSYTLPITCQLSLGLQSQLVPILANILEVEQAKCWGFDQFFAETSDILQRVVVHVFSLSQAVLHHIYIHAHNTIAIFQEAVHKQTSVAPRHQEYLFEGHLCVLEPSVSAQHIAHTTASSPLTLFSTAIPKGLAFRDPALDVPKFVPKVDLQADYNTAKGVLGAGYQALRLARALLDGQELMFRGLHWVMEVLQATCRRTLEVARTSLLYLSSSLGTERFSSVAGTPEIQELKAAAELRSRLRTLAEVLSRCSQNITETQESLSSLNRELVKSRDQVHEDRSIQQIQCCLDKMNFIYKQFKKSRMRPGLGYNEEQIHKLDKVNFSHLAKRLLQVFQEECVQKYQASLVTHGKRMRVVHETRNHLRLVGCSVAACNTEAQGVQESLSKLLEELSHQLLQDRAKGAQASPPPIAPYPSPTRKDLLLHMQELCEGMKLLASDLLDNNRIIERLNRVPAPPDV
Procedure: Test for the Inhibition of IKKε
IKKε—Kinase Assay (IKKepsilon)
The kinase assay is performed either as 384-well Flashplate assay (for e.g. Topcount measurement). […] The reaction is stopped with 25 μl 200 mM EDTA. After 30 Min at room temperature the liquid is removed and each well washed thrice with 100 μl 0.9% sodium chloride solution. […] Radioactivity is measured with Topcount (PerkinElmer). Results (e.g. IC50-values) are calculated with program tools provided by the IT-department (e.g. AssayExplorer, Symyx).

[1] = molecular target: TANK binding kinase (TBK1) (Homo sapiens (Human), UniProt Q9UHD2); assay: TBK1 enzyme assay (384-well Flashplate kinase assay); type: biochemical; details: 10 μM ATP, 120 Min at 30° C.
Chain of TANK binding kinase (TBK1) (Q9UHD2 whole entry): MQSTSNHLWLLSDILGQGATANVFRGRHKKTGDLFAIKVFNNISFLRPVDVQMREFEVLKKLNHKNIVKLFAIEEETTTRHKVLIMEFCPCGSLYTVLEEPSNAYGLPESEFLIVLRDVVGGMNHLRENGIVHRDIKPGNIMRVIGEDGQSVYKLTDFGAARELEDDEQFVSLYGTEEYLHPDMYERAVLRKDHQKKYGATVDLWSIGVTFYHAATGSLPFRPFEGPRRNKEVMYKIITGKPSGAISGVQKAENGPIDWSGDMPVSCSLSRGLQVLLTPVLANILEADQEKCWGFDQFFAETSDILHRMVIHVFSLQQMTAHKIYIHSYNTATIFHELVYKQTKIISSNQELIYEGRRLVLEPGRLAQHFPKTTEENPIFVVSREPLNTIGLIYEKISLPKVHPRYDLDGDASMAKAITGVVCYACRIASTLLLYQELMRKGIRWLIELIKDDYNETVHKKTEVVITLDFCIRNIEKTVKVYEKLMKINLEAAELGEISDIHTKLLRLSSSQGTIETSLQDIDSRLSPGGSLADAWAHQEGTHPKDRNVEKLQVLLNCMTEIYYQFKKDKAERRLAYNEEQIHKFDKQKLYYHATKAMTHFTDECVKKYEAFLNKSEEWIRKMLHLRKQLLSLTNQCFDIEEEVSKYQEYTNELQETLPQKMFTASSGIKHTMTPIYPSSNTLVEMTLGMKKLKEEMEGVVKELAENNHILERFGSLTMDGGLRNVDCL
Procedure: Test for the Inhibition of TBK1
The kinase assay is performed as 384-well Flashplate assay (for e.g. Topcount measurement. 0.6 nM TANK binding kinase (TBK1), 800 nM biotinylated MELK-derived peptide (Biotin-Ah-Ah-[…]) SEQ ID NO: 2 and 10 μM ATP (spiked with 0.25 μCi ^33P-ATP/well) are incubated in a total volume of 50 μl (10 mM MOPS, 10 mM Mg-acetat, 0.1 mM EGTA, 1 mM DTT, 0.02% Brij35, 0.1% BSA, pH 7.5) with or without test compound for 120 Min at 30° C. The reaction is stopped with 25 μl 200 mM EDTA. After 30 Min at room temperature the liquid is removed and each well washed thrice with 100 μl 0.9% sodium chloride solution. Nonspecific reaction is determined in presence of 100 nM Staurosporine. Radioactivity is measured in a Topcount (PerkinElmer). Results (e.g. IC50-values) are calculated with program tools provided by the IT-department (e.g. AssayExplorer, Symyx).

Structure (SMILES) | IC50 (phospho-IRF3 Ser 386) | IC50 (IKKε) | IC50 [1]
O=C(NCCCNc1nc(Nc2cccc(NC(=O)N3CCCC3)c2)ncc1I)c1cccs1 [BX-795] | 200 to 800 nM | – | –
CN1CCC(Cc2ccc(C(=O)Nc3sc(-c4ccncc4)nc3C(N)=O)cc2)CC1 [Compound A26, 5-[4-(1-methyl-piperidin-4-ylmethyl)-benzoylamino]-2-pyridin-4-yl-thiazole-4-carboxylic acid amide] | – | 31 nM | 100 nM
CC(=O)N1CCN(Cc2ccc(C(=O)Nc3sc(-c4ccncc4)nc3C(N)=O)cc2)CC1 [Compound A27, 5-[4-(4-acetyl-piperazin-1-ylmethyl)-benzoylamino]-2-pyridin-4-yl-thiazole-4-carboxylic acid amide] | – | 100 nM | 140 nM
CN1CCN(Cc2ccc(C(=O)Nc3sc(-c4ccncc4)nc3C(N)=O)cc2)CC1 [Compound A37, 5-[4-(4-methyl-piperazin-1-ylmethyl)-benzoylamino]-2-pyridin-4-yl-thiazole-4-carboxylic acid amide] | – | 200 nM | 710 nM
NC(=O)c1nc(-c2ccncc2)sc1NC(=O)c1ccc(N2CCOCC2)nc1 [Compound A43, N-(4-carbamoyl-2-pyridin-4-yl-thiazol-5-yl)-6-morpholin-4-yl-nicotinamide] | – | 2000 nM | 7300 nM
Cc1ccc(C(=O)Nc2sc(-c3ccncc3)nc2C(N)=O)cc1 [Compound A55, 5-(4-methyl-benzoylamino)-2-pyridin-4-yl-thiazole-4-carboxylic acid amide] | – | 5300 nM | 10000 nM
NC(=O)c1nc(-c2ccncc2)sc1NC(=O)c1ccc(N)cc1 [Compound A58, 5-[(4-aminobenzoyl)amino]-2-pyridin-4-yl-1,3-thiazole-4-carboxamide] | – | 180 nM | 110 nM
NC(=O)c1nc(-c2ccncc2)sc1NC(=O)c1ccco1 [Compound A60, 5-(2-furoylamino)-2-pyridin-4-yl-1,3-thiazole-4-carboxamide] | – | 6300 nM | 3700 nM
NC(=O)c1nc(-c2ccncc2)sc1NC(=O)c1cc[nH]n1 [Compound A63, 5-[(1H-pyrazol-3-ylcarbonyl)amino]-2-pyridin-4-yl-1,3-thiazole-4-carboxamide] | – | 7300 nM | 2700 nM

Further lines, results first:

IC50 (phospho-IRF3 Ser 386) | IC50 (IKKε) | IC50 [1] | Structure (SMILES)
– | 300 nM | 350 nM | Cc1cnccc1-c1nc(C(N)=O)c(NC(=O)c2ccc(CN3CCN(C)CC3)cc2)s1 [Compound A22, 2-(3-methyl-pyridin-4-yl)-5-[4-(4-methyl-piperazin-1-ylmethyl)-benzoylamino]-thiazole-4-carboxylic acid amide]
– | 260 nM | 95 nM | NC(=O)c1nc(-c2ccncc2)sc1NC(=O)c1ccc(CN2CCNCC2)cc1 [Compound A24, 5-(4-piperazin-1-ylmethyl-benzoylamino)-2-pyridin-4-yl-thiazole-4-carboxylic acid amide]
– | 280 nM | 1250 nM | CN(C)Cc1ccc(C(=O)Nc2sc(-c3ccncc3)nc2C(N)=O)cc1 [Compound A40, 5-(4-dimethylaminomethyl-benzoylamino)-2-pyridin-4-yl-thiazole-4-carboxylic acid amide]
– | 730 nM | 2700 nM | NC(=O)c1nc(-c2ccncc2)sc1NC(=O)c1cn[nH]c1 [Compound A42, 5-[(1H-pyrazole-4-carbonyl)-amino]-2-pyridin-4-yl-thiazole-4-carboxylic acid amide]
– | 1600 nM | 1800 nM | CN(C)c1ccc(C(=O)Nc2sc(-c3ccncc3)nc2C(N)=O)cc1 [Compound A57, 5-{[4-(dimethylamino)benzoyl]amino}-2-pyridin-4-yl-1,3-thiazole-4-carboxamide]
– | 1200 nM | 400 nM | Cn1cccc1C(=O)Nc1sc(-c2ccncc2)nc1C(N)=O [Compound A59, 5-{[(1-methyl-1H-pyrrol-2-yl)carbonyl]amino}-2-pyridin-4-yl-1,3-thiazole-4-carboxamide]
– | 140 nM | 120 nM | NC(=O)c1nc(-c2ccncc2)sc1NC(=O)c1ccc[nH]1 [Compound A61, 2-pyridin-4-yl-5-[(1H-pyrrol-2-ylcarbonyl)amino]-1,3-thiazole-4-carboxamide]
– | 480 nM | 200 nM | NC(=O)c1nc(-c2ccncc2)sc1NC(=O)c1ccsc1 [Compound A65, 2-pyridin-4-yl-5-[(3-thienylcarbonyl)amino]-1,3-thiazole-4-carboxamide]
